This is an account of results in PubChem BioAssay AID510.

Each structure is given as a SMILES string.

The target in the assay is Dehydrogenase/reductase SDR family member 6 (Homo sapiens) (UniProt Q9BUT1). In words: DHRS6 binders by thermal stabilisation, biophysical, DSF, SYPRO orange, purified human protein (AID 510). The following applies: at 100 µM, protein 2 µM, buffer 10 mM HEPES, pH 7.5, NaCl 150 mM, stronger effect = higher value.
Dehydrogenase/reductase SDR family member 6 (Homo sapiens), sequence (Q9BUT1 whole entry, looked up): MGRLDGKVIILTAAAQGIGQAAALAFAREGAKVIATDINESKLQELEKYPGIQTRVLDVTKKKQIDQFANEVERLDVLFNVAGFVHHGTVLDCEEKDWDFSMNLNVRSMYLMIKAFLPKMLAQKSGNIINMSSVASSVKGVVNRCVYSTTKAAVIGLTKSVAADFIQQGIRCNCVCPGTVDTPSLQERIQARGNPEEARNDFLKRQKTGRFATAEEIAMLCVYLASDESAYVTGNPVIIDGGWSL
Turning to `O=C(C1CCN(S(=O)(=O)c2cccnc2)CC1)N1CCN(C(c2ccccc2)c2ccc(Cl)cc2)CC1` (stereo not given), the Tm shift was determined as 2.2 Celsius.
Under `NC(=O)c1ccc[n+](C2OC(COP(=O)(O)OP(=O)(O)OCC3OC(n4cnc5c(N)ncnc54)C(O)C3O)C(O)C2O)c1` (stereo not given) stands 2.4 Celsius; under `O=C1C2(Cl)C3(Cl)C4(Cl)C(Cl)(Cl)C5(Cl)C3(Cl)C1(Cl)C5(Cl)C24Cl` (stereo not given), 4.7 Celsius; under `O=c1oc2cc(O)ccc2c2oc3cc(O)ccc3c12`, 2.2 Celsius.
In the case of `C=CC1=C(C)/C(=C/c2[nH]c(Cc3[nH]c(/C=C4\NC(=O)C(C)=C4C=C)c(C)c3CCC(=O)O)c(CCC(=O)O)c2C)NC1=O`, the Tm shift was 8.1 Celsius.
